Measured values from patent publication US20240116985A1, “STAPLED PEPTIDES AND METHODS THEREOF” (priority 2020, published 2024).
Converted amounts (≈) assume the structure as drawn. Read-outs that look alike come from different tables or passages of the source.

Columns and labels:
CHI Log D procedure = format: physicochemical; settings: for CHI Log D: pH 7.4; for chromatographic logD: pH 7.4, CHI Log D
[1] = target: T1, full-length beta-Catenin (Uniprot ID P35222) (Homo sapiens, UniProt P35222); test: Fluorescence polarization IC50 (beta-catenin / 5FAM-TCF4 10-53 competition); format: binding
T1 construct: 10 nM full-length beta-Catenin (Uniprot ID P35222)
T1 sequence (P35222 1-781): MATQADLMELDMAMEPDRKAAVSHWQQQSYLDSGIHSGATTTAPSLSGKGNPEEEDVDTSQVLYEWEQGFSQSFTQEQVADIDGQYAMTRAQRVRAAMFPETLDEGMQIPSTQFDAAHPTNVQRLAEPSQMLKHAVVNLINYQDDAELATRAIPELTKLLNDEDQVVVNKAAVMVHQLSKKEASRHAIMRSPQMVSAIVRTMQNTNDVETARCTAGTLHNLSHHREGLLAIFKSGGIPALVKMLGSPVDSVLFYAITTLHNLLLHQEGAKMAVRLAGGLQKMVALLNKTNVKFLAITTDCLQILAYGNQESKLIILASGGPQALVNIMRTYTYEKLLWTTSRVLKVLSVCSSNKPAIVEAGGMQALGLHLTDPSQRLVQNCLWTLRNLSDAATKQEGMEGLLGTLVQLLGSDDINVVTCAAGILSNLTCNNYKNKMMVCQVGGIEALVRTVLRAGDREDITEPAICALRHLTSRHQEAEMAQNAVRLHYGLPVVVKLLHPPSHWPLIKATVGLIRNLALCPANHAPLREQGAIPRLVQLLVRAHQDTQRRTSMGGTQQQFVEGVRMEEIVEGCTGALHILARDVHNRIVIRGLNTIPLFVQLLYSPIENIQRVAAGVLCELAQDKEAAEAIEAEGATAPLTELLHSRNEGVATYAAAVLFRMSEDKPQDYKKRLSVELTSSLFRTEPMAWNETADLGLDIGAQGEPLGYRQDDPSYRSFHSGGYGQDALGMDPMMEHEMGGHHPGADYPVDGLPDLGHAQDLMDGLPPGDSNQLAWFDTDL

Solubility in PBS = format: physicochemical
Outline: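 HPLC quantitation of peptide remaining in the PBS supernatant after ultracentrifugation, referenced to a 50 μM solution in DMSO.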

[2] = fluorescence polarization, beta-catenin, read-out: FP EC50
[3] = fluorescence polarization, read-out: beta-Catenin FP IC50

CHI Log D (CHI Log D procedure)	IC50 [1, 2] [nM]	IC50 ([1]; read-out: beta-Catenin FP IC50) [nM]	Solubility (Solubility in PBS) [µM]	chromatographic logD (CHI Log D procedure)	IC50 [1, 3] [nM]	IC50 ([1]; read-out: FP EC50) [nM]	Solubility (Solubility in PBS; Solubility (uM)) [µM]	IC50 ([1]; Table E2-1, read-out: beta-Catenin FP IC50) [nM]	Compound
1.939	1610	1840	10 (≈ 20.1 µg/mL)	–	–	–	–	–	CCN(CC(=O)O)C[C@@H]1NC(=O)[C@H](CC(=O)O)NC(=O)C2(CCCC=CCCCOC(=O)N3CC[C@@](C(=O)N[C@@H](Cc4ccsc4)C(=O)N[C@@H](Cc4csc5ccccc45)C(=O)N[C@@H](CCC(N)=O)C(N)=O)(C3)NC(=O)[C@H](Cc3ccccc3)NC(=O)[C@H](Cc3ccccc3)NC(=O)[C@H](C)NC(=O)[C@H](C)NC1=O)CCCC=CC[C@]1(CCCN1C(C)=O)C(=O)N[C@@H](CC(=O)O)C(=O)N[C@@H](CC(C)(C)C)C(=O)N2 (stereo partly drawn) [I-971, Ac-PL3-Asp-Npg-B5-Asp-EtGA-Ala-Ala-Phe-Phe-PyrS2-3Thi-BztA-Gln-NH2]
–	–	–	10 (≈ 20.2 µg/mL)	3.11	54	–	–	–	CC(=O)N1CCC[C@]12CC=CCCCC1(CCCC=CCCCCCC[C@@](C)(C(=O)N[C@@H](Cc3ccsc3)C(=O)N[C@@H](Cc3csc4ccccc34)C(=O)N[C@@H](Cc3c[nH]cn3)C(N)=O)NC(=O)[C@H](CC(N)=O)NC(=O)[C@H](Cc3ccccc3)NC(=O)[C@H](C)NC(=O)[C@H](C)NC(=O)[C@H](CN(CC(=O)O)CC(F)(F)F)NC(=O)[C@H](CC(=O)O)NC1=O)NC(=O)[C@H](CC1CCCCC1)NC(=O)[C@H](CC(=O)O)NC2=O (stereo partly drawn) [I-709, Ac-PL3-Asp-Cha-B5-Asp-TfeGA-Ala-Ala-Phe-Asn-S8-3Thi-BztA-His-NH2]
2.255	–	–	50 (≈ 92.8 µg/mL)	–	44	44	–	–	CC[C@H](C)[C@@H]1NC(=O)[C@H](CC(=O)O)NC(=O)[C@]2(CC=CCCCC3(CCCC=CCCCCCC[C@@](C)(C(=O)N[C@@H](Cc4ccccc4)C(=O)N[C@@H](Cc4csc5ccccc45)C(=O)N[C@@H](CCC(N)=O)C(N)=O)NC(=O)[C@H](CC(N)=O)NC(=O)[C@H](Cc4ccccc4)NC(=O)[C@H](C)NC(=O)[C@H](C)NC(=O)[C@H](CC(=O)O)NC(=O)[C@H](CC(=O)O)NC3=O)NC1=O)CCCN2C(C)=O (stereo partly drawn) [I-467, Ac-PL3-Asp-Ile-B5-Asp-Asp-Ala-Ala-Phe-Asn-S8-Phe-BztA-Gln-NH2]
2.416	–	–	48 (≈ 93.4 µg/mL)	–	253	253	–	–	CC[C@H](C)[C@@H]1NC(=O)[C@H](CC(=O)O)NC(=O)[C@]2(CC=CCCCC3(CCCC=CCCCCCC[C@@](C)(C(=O)N[C@@H](Cc4ccccc4)C(=O)N[C@@H](Cc4csc5ccccc45)C(=O)N[C@@H](CCC(N)=O)C(N)=O)NC(=O)[C@H](CCC(N)=O)NC(=O)[C@H](Cc4ccccc4)NC(=O)[C@H](C)NC(=O)[C@H](C)NC(=O)[C@H](Cc4ccc(C(=O)O)cc4)NC(=O)[C@H](CC(=O)O)NC3=O)NC1=O)CCCN2C(C)=O (stereo partly drawn) [I-607, Ac-PL3-Asp-Ile-B5-Asp-4COOHF-Ala-Ala-Phe-Gln-S8-Phe-BztA-Gln-NH2]
2.011	2110	2110	46 (≈ 91.5 µg/mL)	–	–	–	–	–	CC(=O)N1CCC[C@]12CC=CCCCC1(CCCC=CCCCOC(=O)N3CC[C@@](C(=O)N[C@@H](Cc4ccsc4)C(=O)N[C@@H](Cc4csc5ccccc45)C(=O)N[C@@H](CO)C(N)=O)(C3)NC(=O)[C@H](CC(N)=O)NC(=O)[C@H](Cc3ccccc3)NC(=O)[C@H](C)NC(=O)[C@H](C)NC(=O)[C@H](CN(CC(=O)O)CC(F)(F)F)NC(=O)[C@H](CC(=O)O)NC1=O)NC(=O)[C@H](CC(C)(C)C)NC(=O)[C@H](CC(=O)O)NC2=O (stereo partly drawn) [I-941, Ac-PL3-Asp-Npg-B5-Asp-TfeGA-Ala-Ala-Phe-Asn-PyrS2-3Thi-BztA-Ser-NH2]
2.677	–	–	50 (≈ 96.3 µg/mL)	–	445	445	–	–	CC[C@H](C)[C@@H]1NC(=O)[C@H](CC(=O)O)NC(=O)[C@]2(CC=CCCCC3(CCCC=CCCCCCC[C@@](C)(C(=O)N[C@@H](Cc4ccccc4)C(=O)N[C@@H](Cc4csc5ccccc45)C(=O)N[C@@H](CCC(N)=O)C(N)=O)NC(=O)[C@H](CCC(N)=O)NC(=O)[C@H](Cc4ccccc4)NC(=O)[C@H](C)NC(=O)[C@H](CC(C)C)NC(=O)[C@H](CCC(=O)O)NC(=O)[C@H](CC(=O)O)NC3=O)NC1=O)CCCN2C(C)=O (stereo partly drawn) [I-647, Ac-PL3-Asp-Ile-B5-Asp-Glu-Leu-Ala-Phe-Gln-S8-Phe-BztA-Gln-NH2]
2.242	3010	–	49 (≈ 90.1 µg/mL)	–	–	–	–	–	CC(=O)N1CCC[C@]12CC=CCCCC1(CCCC=CCCCCCC[C@@](C)(C(=O)N[C@@H](Cc3ccccc3)C(=O)N[C@@H](Cc3csc4ccccc34)C(=O)N[C@@H](CCC(N)=O)C(N)=O)NC(=O)[C@H](C)NC(=O)[C@H](Cc3cccc(C(F)(F)F)c3)NC(=O)[C@H](C)NC(=O)[C@H](C)NC(=O)[C@H](CC(=O)O)NC(=O)[C@H](CC(=O)O)NC1=O)NC(=O)[C@H](C)NC(=O)[C@H](CC(=O)O)NC2=O (stereo partly drawn) [I-375, Ac-PL3-Asp-Ala-B5-Asp-Asp-Ala-Ala-3F3MeF-Ala-S8-Phe-BztA-Gln-NH2]
2.801	–	–	10 (≈ 19.1 µg/mL)	–	1140	1140	–	–	CC[C@H](C)[C@@H]1NC(=O)[C@H](CC(=O)O)NC(=O)[C@]2(CC=CCCCC3(CCCC=CCCCCCC[C@@](C)(C(=O)N[C@@H](Cc4ccccc4)C(=O)N[C@@H](Cc4csc5ccccc45)C(=O)N[C@@H](CCC(N)=O)C(N)=O)NC(=O)[C@H](CCC(N)=O)NC(=O)[C@H](Cc4ccccc4)NC(=O)[C@H](C)NC(=O)[C@H](C)NC(=O)[C@H](CCCNC(=N)N)NC(=O)[C@H](CC(=O)O)NC3=O)NC1=O)CCCN2C(C)=O (stereo partly drawn) [I-614, Ac-PL3-Asp-Ile-B5-Asp-Arg-Ala-Ala-Phe-Gln-S8-Phe-BztA-Gln-NH2]
–	–	–	–	2.73	353	–	44 (≈ 86 µg/mL)	–	CC(=O)N1CCC[C@]12CC=CCCCC1(CCCC=CCCCCCC[C@@](C)(C(=O)N[C@@H](Cc3ccccc3)C(=O)N[C@@H](Cc3csc4ccccc34)C(=O)N[C@@H](CCC(N)=O)C(=O)NC(C)(C)C(N)=O)NC(=O)[C@H](CC(N)=O)NC(=O)[C@H](Cc3ccccc3)NC(=O)[C@H](C)NC(=O)[C@H](C)NC(=O)[C@H](CCC(=O)O)NC(=O)[C@H](CC(=O)O)NC1=O)NC(=O)[C@H](CC(C)C)NC(=O)[C@H](CC(=O)O)NC2=O (stereo partly drawn) [I-737, Ac-PL3-Asp-Leu-B5-Asp-Glu-Ala-Ala-Phe-Asn-S8-Phe-BztA-Gln-Aib-NH2]
2.071	1990	1990	49 (≈ 98.1 µg/mL)	–	–	–	–	–	CC(=O)N1CCC[C@]12CC=CCCCC1(CCCC=CCCCOC(=O)N3CC[C@@](C(=O)N[C@@H](Cc4ccsc4)C(=O)N[C@@H](Cc4csc5ccccc45)C(=O)N[C@H](C(N)=O)[C@@H](C)O)(C3)NC(=O)[C@H](CC(N)=O)NC(=O)[C@H](Cc3ccccc3)NC(=O)[C@H](C)NC(=O)[C@H](C)NC(=O)[C@H](CN(CC(=O)O)CC(F)(F)F)NC(=O)[C@H](CC(=O)O)NC1=O)NC(=O)[C@H](CC(C)(C)C)NC(=O)[C@H](CC(=O)O)NC2=O (stereo partly drawn) [I-943, Ac-PL3-Asp-Npg-B5-Asp-TfeGA-Ala-Ala-Phe-Asn-PyrS2-3Thi-BztA-Thr-NH2]
2.136	2620	–	48 (≈ 87 µg/mL)	–	2620	–	–	–	CC(=O)N1CCC[C@]12CC=CCCCC1(CCCC=CCCCCCC[C@@](C)(C(=O)N[C@@H](Cc3ccccc3)C(=O)N[C@@H](Cc3csc4ccccc34)C(=O)N[C@@H](CCC(N)=O)C(N)=O)NC(=O)[C@H](C(C)C)NC(=O)[C@H](Cc3ccccn3)NC(=O)[C@H](C)NC(=O)[C@H](C)NC(=O)[C@H](CCC(=O)O)NC(=O)[C@H](CC(=O)O)NC1=O)NC(=O)[C@H](C)NC(=O)[C@H](CC(=O)O)NC2=O (stereo partly drawn) [I-387, Ac-PL3-Asp-Ala-B5-Asp-Glu-Ala-Ala-2pyrA-Val-S8-Phe-BztA-Gln-NH2]
2.162	352	352	27 (≈ 53.6 µg/mL)	–	–	–	–	–	CC(=O)N1CCC[C@]12CC=CCCCC1(CCCC=CCCCOC(=O)N3CC[C@@](C(=O)N[C@@H](Cc4ccccc4Cl)C(=O)N[C@@H](Cc4csc5ccccc45)C(=O)N[C@@H](CCC(N)=O)C(N)=O)(C3)NC(=O)[C@H](CC(C)C)NC(=O)[C@H](Cc3ccccc3)NC(=O)[C@H](C)NC(=O)[C@H](C)NC(=O)[C@H](CCC(=O)O)NC(=O)[C@H](CC(=O)O)NC1=O)NC(=O)[C@H](CC1CCCCC1)NC(=O)[C@H](CC(=O)O)NC2=O (stereo partly drawn) [I-1078, Ac-PL3-Asp-Cha-B5-Asp-Glu-Ala-Ala-Phe-Leu-PyrS2-2C1F-BztA-Gln-NH2]
–	–	–	–	2.14	–	–	48 (≈ 85.8 µg/mL)	1390	CC(=O)N1CCC[C@]12CC=CCCCC1(CCCC=CCCCCCC[C@@](C)(C(=O)N[C@@H](Cc3cccc(F)c3)C(=O)N[C@@H](Cc3csc4ccccc34)C(=O)N[C@@H](CCC(N)=O)C(N)=O)NC(=O)[C@H](C)NC(=O)[C@H](Cc3ccccc3)NC(=O)[C@H](C)NC(=O)[C@H](C)NC(=O)[C@H](CC(=O)O)NC(=O)[C@H](CC(=O)O)NC1=O)NC(=O)[C@H](C)NC(=O)[C@H](CC(=O)O)NC2=O (stereo partly drawn) [I-371, Ac-PL3-Asp-Ala-B5-Asp-Asp-Ala-Ala-Phe-Ala-S8-3FF-BztA-Gln-NH2]
